Like-named read-outs stand apart in the source and are kept apart here.
Assays:
[1] = test system: aromatase; assay: ToxCast aromatase assays (TOX21_Aromatase_Inhibition) and final ToxCast call; assay type: cell-based; settings: for ToxCast result: aromatase overall ToxCast call; for Final "true" call (ToxCast) Aromatase inhibition: from ToxCast assays
From the text: (§1) The performance of different in silico models for ED effects tends to be evaluated on single model for a single effect, such as ER or AR binding, agonism or antagonism (normally by the developer), or a limited number of models using multiple chemicals (Weyrich et al. [2022]). Multi-organisation collaborations have also evaluated multiple models for a specific effect e.g. ER (Mansouri et al. [2016]) and AR (Mansouri et al. [2020]) effects. Therefore, we have conducted a side-by-side comparison of multiple different in silico models covering three pathways in ED, namely ER, AR and aromatase inhibition and compared these with ToxCast-derived final calls, as well as with results from in vitro assays. The efficiency of the in silico models was evaluated as a metric for the ability of the in silico model to generate concrete predictions. […] In vivo data were available for some but not all chemicals; therefore, an evaluation of the performance of the methods was made by comparing the derived overall calls from in silico models with those from the ToxCast database. The final call for each chemical evaluated in the ToxCast assays was made by considering the active-flagged assays and the corresponding cytotoxicity levels, the ToxCast Pathway Model (Browne et al. [2015]) and the CERAPP Potency Level (Mansouri et al. [2016]) for ER effects and the ToxCast Pathway Model (Kleinstreuer et al. [2017]) for AR effects (see Online Resource 1 Supplementary Tables 2, 4 and 6 for the outcome of the ER, AR and aromatase ToxCast assays, additional literature and final calls for each chemical and target).
Aromatase represents only one enzyme involved in steroidogenesis (the conversion of androgens to oestrogens); therefore, the aromatase assay detects effects on 17β-oestradiol production only. […] It is a cell-based assay in which MCF-7 cells are incubated with the test chemical for 24 h before measuring aromatase activities indirectly via a luciferase-based reporter endpoint which is dependent on the binding of the oestradiol–ER complex to the oestrogen response element. A decrease in luciferase activity can occur as a result of direct inhibition of aromatase (preventing the production of oestradiol) or by preventing oestradiol from binding to the ER and thus the binding to the oestrogen RE which initiates the production of luciferase (Lui et al. [2008]).

[2] = test system: ER; parameters: method as in Mansouri et al. 2016; settings: ref Mansouri et al. 2016; cited from earlier work
[3] = test system: AR; assay: ToxCast AR assays and final ToxCast call; settings: for Final "true" call (ToxCast): AR effects, from active assays, cytotoxicity and pathway model; for ToxCast result: AR overall call from Supplementary Table 4; for Final "true" call (ToxCast) AR: from ToxCast assays and ToxCast Pathway Model
From the text: A rich source of data can be found in the EPA's ToxCast database (US EPA). This contains ED data for ~ 1800 chemicals in more than 700 high-throughput assay endpoints that cover a range of high-level cell responses. The US EPA is running an Endocrine Disruption Screening Program (EDSP), with the aim of prioritising chemicals using high-throughput screening methods and computational toxicology approaches to evaluate thousands of chemicals for ED activities. The OECD framework for ED assessment (OECD [2018]) requires animal testing at higher levels, where relevant in vitro alternatives are missing e.g. for developmental, reproductive, neurological and immune effects. However, such follow-up testing is not possible for the cosmetics industry especially in the EU due to the complete animal testing ban which came into force in March 2013 (EU [2009]). Even for other industries, animal models are not suitable for assessing ED effects due to issues relating to ethics, capacity, speed and relevance (Patisaul et al. [2018]). Therefore, chemicals which cannot be evaluated using in vivo method must be assessed using alternative methods e.g. in silico and in vitro methods listed in Levels 1 and 2 of the framework described in the OECD 150 test guideline (OECD [2018]).
as §1

[4] = test system: H295R cells; assay: H295R steroidogenesis assay (oestrogen and androgen production); assay type: cell-based, human; settings: for minimal effective concentration: Homo sapiens, NCI-H295R, 48 h
Method: The in vitro H295R Steroidogenesis Assay is based on the human adenocarcinoma cell line, NCI-H295R, in which the human steroidogenesis pathway is fully functional (OECD 2022). The effect of the test chemical on the production of 17β-estradiol and testosterone is measured using ERα CALUX and AR CALUX technology.
The test chemical was tested in two independent assays, each in triplicate.

[5] = read-out: Steroidogenesis Androgenicity LEC
[6] = read-out: Steroidogenesis Estrogenicity LEC

SMILES | ToxCast result [1] | Final "true" call (ToxCast) Aromatase inhibition [1] | CERAPP Potency Level [2] | Final "true" call (ToxCast) [3] | ToxCast result [3] | Final "true" call (ToxCast) AR [3] | minimal effective concentration [4, 5] [µM] | minimal effective concentration [4, 6] [µM] | LEC, androgen production ([4]; decrease) [µM] | androgen production, fold of control ([4]; highest concentration tested, 100 µM)
CCCCN(CCCC)c1ccc(C(=O)c2ccccc2C(=O)O)c(O)c1 [DBABA, 2-[4-(dibutylamino)-2-hydroxybenzoyl]benzoic acid] | Negative | Negative | Negative | Negative | Negative | Negative | > 10 | > 10 |  | 
C[C@]12CCC(=O)C[C@@H]1CC[C@@H]1[C@@H]2CC[C@@]2(C)[C@H]1CC[C@]2(C)O [Mestanolone, mestanolone, reference compound] | Negative | Negative | Weak agonist & strong antagonist | Positive for agonism | AR agonist only | Positive for agonism | > 0.00316 | > 0.1 |  | 
CC(C)(C)CC(C)(C)c1ccc(O)cc1 [4-TO, 4-tert-octylphenol] |  | Inconclusive | Weak agonist & strong antagonist | Positive for antagonism | AR antagonist only | Positive for antagonism | > 1 |  |  | 
O=c1c(-c2ccc(O)cc2)coc2cc(O)ccc12 [Daidzein, daidzein] | Negative | Negative | Weak agonist & strong antagonist | Inconclusive |  |  | 0.794 | > 3.16 | 0.77 | 0.06 fold of control
